Experiment: Affinity for phosphatidylethanolamine, Biacore 3000 with L1 chip and captured liposomes
Assay type: binding
Conditions: POPE/POPC liposomes (20% PE)
Description: A Biacore 3000 (GE Healthcare, Uppsala) was equipped with an L1 chip. Liposomes made of POPE/POPC (20% PE) were applied for the affinity study using the capture technique recommended by the manufacturer. Each run consisted of activation of the chip surface, immobilization of liposomes, binding of peptide and wash off of both liposomes and peptide (regeneration). Similar applications can be found in Frostell-Karlsson et al [Pharm. Sciences, V.94 (1), (2005)]. Thorough washing of needle, tubing and liquid handling system with running buffer was performed after each cycle.
BIACORE software: The BIACORE control software including all method instructions was applied. A method with commands was also written in the BIACORE Method Definition Language (MDL) to have full control over pre-programmed instructions. BIACORE evaluation software was applied for analysing the sensorgrams.

Substance: duramycin
- ka: ~20000 M⁻¹ s⁻¹

— patent US20130251632A1, “APOPTOSIS PET IMAGING AGENTS” (GE HEALTHCARE LIMITED, priority 2010, published 2013)
